How the values were obtained:
LC3-II = LC3-II formation as indicator of autophagy in HeLa cells (Western blot); assay type: cell-based, human; details: Homo sapiens, 9 hours, read-out: LC3-II (% control)
Procedure: (§1) Specifically, HeLa cells were cultured in a 5% CO2 incubator at 37° C. in DMEM (Dulbecco's Modified Eagles Media) medium supplemented with 10% FBS, penicillin (100 unit/ml), and streptomycin (100 μg/ml). Cultivation was started by seeding 4×10^5 cells in a 100 mm culture dish, and subculture was carried out every 3 days.
(§2) Human cell line HeLa cells were seeded in a 60 mm culture dish at a density of 2×10^5 cells/plate, and cultured for 24 hours. Then, HeLa cells were treated with 70 types of compounds at a concentration of 40 μM each for 9 hours. HeLa cells were washed twice with cold 1×PBS, and then lysed with 100 μl of RIPA buffer (50 mM Tris-HCl (pH7.4), 0.25% sodium deoxycholate, 50 mM NaF, 1% NP-40, 150 mM NaCl, 1 mM β-glycerophosphate, 1 mM PMSF, 1 mM NaVO4, 1 μg/ml leupeptin, 1 μg/ml pepstatin A, 10 nM calyculin A, 10 μg/ml aprotinin, 1 mM EDTA) to hemolyze the cell membrane. Then, the lysates were centrifuged at 12,000 rpm at 4° C. for 10 minutes to collect the supernatant, which is cell lysate. Protein concentration in the cell lysate was determined using the BCA protein assay kit (Thermo Fisher Scientific), and equal amounts of protein were separated by SDS-PAGE.
(§3) Western blot analysis was performed by the following method. […] After washing the membrane three times for 5 minutes each with TBS-T buffer, it was incubated with primary antibodies diluted in TBS-T buffer containing 5% skim milk or 5% BSA overnight at 4° C. Subsequently, the membrane was washed three times for 5 minutes each with TBS-T buffer, and then incubated with secondary antibodies diluted in TBS-T buffer containing 5% skim milk at room temperature for 30 minutes. The membrane was washed five times for 5 minutes each with TBS-T buffer containing 5% skim milk, and then the protein bands bound by the secondary antibody were detected using a chemiluminescence method. The primary antibodies used were Akt (cell signaling, #4691), pAkt(S473) (Cell signaling, #4060), p70S6K (Cell signaling, #S6198), pp70S6K(T389) (cell signaling, #9205S), LC3-II (MBL, #PM036), and the secondary antibodies used were HRP conjugated anti-rabbit (Jackson immunoresearch laboratory, #711-035-152) and HRP conjugated anti-mouse IgG (Jackson immunoresearch laboratory, #515-035-072).
LC3-II formation was selected as an indicator of autophagy in HeLa cells, and the LC3-II signal obtained from Western blot analysis was normalized to the pan-Akt signal and the data were expressed as a percentage relative to the control group treated with DMSO only, which is a vehicle.

mTORC1 = biological target: T1, mTORC1 (Homo sapiens, UniProt P42345); assay: mTORC1 inhibitory activity in HeLa cells (p70S6K Thr389 phosphorylation, Western blot); assay type: cell-based; details: for remaining activity at 40 µM: read-out: pThr389-S6K/S6K (% control); for inhibition at 40 µM: HeLa, 9 h, read-out: reduction in p70S6K Thr389 phosphorylation compared to the control group
T1 construct: the following experiments were conducted in HeLa cells; endogenous in cells; host or cells: HeLa
Procedure: as §1, §2, §3
As an mTORC1 activity indicator in HeLa cells, the level of p70S6K Thr389 phosphorylation was selected as a marker, and the level of phosphor-p70S6K (Thr389) signal measured by Western blot analysis was normalized to a level of pan-p70S6K signal, and then expressed as a percentage of the control group treated with only DMSO, which is a vehicle.

mTORC2 = biological target: T2, mTORC2 (Homo sapiens, UniProt P42345); assay: mTORC2 inhibitory activity in HeLa cells (Akt Ser473 phosphorylation, Western blot); assay type: cell-based; details: for selective inhibition of mTORC2: 40 μM, versus mTORC1; for selective inhibition of mTORC2 / remaining activity at 40 µM: 9 hours; for remaining activity at 40 µM: read-out: pSer473-AKT/AKT (% control); for inhibition at 40 µM: HeLa, 9 h, read-out: reduction in Akt Ser473 phosphorylation compared to the control group
T2 construct: the following experiments were conducted in HeLa cells; endogenous in cells; host or cells: HeLa
Procedure: as §1, §2, §3
As an mTORC2 activity indicator in HeLa cells, the level of Akt Ser473 phosphorylation was selected as a marker, and the phosphor-Akt (Ser473) signal obtained from Western blot analysis was normalized to the pan-Akt signal, and the data were expressed as a percentage relative to the control group treated with DMSO only, which is a vehicle.

Row | SMILES | remaining activity at 40 µM (mTORC1; 9 hours) [%] | selective inhibition of mTORC2 (mTORC2) | remaining activity at 40 µM (mTORC2) [%] | inhibition at 40 µM (mTORC2) [%] | inhibition at 40 µM (mTORC1) [%] | increase in S6K Thr389 phosphorylation (mTORC1; 40 μM, 9 hours) [%] | activity at 40 µM (LC3-II) [%]
1 | COc1cc2c(cc1OC)C(=O)c1cc(F)c(N3CCN(c4ccccc4)CC3)cc1CC2 [HN2316, 3-fluoro-7,8-dimethoxy-2-(4-phenylpiperazin-1-yl)-10,11-dihydro-5H-dibenzo[a,d][7]annulen-5-one] | 38 |  | 20 | > 20 | > 20 |  | 256
2 | COc1cc2c(cc1OC)C(=O)c1cc(-c3ccc(Cl)cc3)ccc1CS2 [HN2309, 9-(4-chlorophenyl)-2,3-dimethoxydibenzo[b,e]thiepin-11(6H)-one] | 106 | selectively inhibit mTORC2 | 66 | > 20 |  |  | 
3 | COc1cc2c(cc1OC)C(=O)c1cc(-c3ccc(C)cc3)ccc1CS2 [HN2307, 2,3-dimethoxy-9-(p-tolyl)dibenzo[b,e]thiepin-11(6H)-one] | 106 | selectively inhibit mTORC2 | 72 | > 20 |  |  | 
4 | COc1cc2c(cc1OC)C(=O)c1cc(-c3cc(OC)c(OC)c(OC)c3)ccc1CS2 [HN2305, 2,3-dimethoxy-9-(3,4,5-trimethoxyphenyl)dibenzo[b,e]thiepin-11(6H)-one] | 64 |  | 47 | > 20 | > 20 |  | 
5 | COc1ccc(CCNc2ccc3c(c2F)COc2cc4c(cc2C3=O)OCO4)cc1 [HN2233, 8-((4-methoxyphenethyl)amino)-7-fluoro[2]benzoxepino[3,4-f]-1,3-benzodioxol-11(6H)-one] | 107 | selectively inhibit mTORC2 | 74 | > 20 |  |  | 121
6 | COc1cc2c(cc1OC)C(=O)c1cc(F)c(N3CCCCC3)cc1CC2 [HN2315, 3-fluoro-7,8-dimethoxy-2-(piperidin-1-yl)-10,11-dihydro-5H-dibenzo[a,d][7]annulen-5-one] | 223 | selectively inhibit mTORC2 | 28 | > 20 |  |  | 620
7 | O=C1c2cc3c(cc2OCc2c1ccc(NC1CCCCC1)c2F)OCO3 [HN2231, 8-(cyclohexylamino)-7-fluoro[2]benzoxepino[3,4-f]-1,3-benzodioxol-11(6H)-one] | 49 |  | 100 |  | > 20 |  | 122
8 | O=C1c2cc3c(cc2OCc2c1ccc(N1CCC(Cc4ccccc4)CC1)c2F)OCO3 [HN2232, 8-(4-benzylpiperidin-1-yl)-7-fluoro[2]benzoxepino[3,4-f]-1,3-benzodioxol-11(6H)-one] | 136 | selectively inhibit mTORC2 | 48 | > 20 |  |  | 64
9 | COc1cc2c(cc1OC)C(=O)c1cc(F)c(NCc3ccccc3)cc1CC2 [HN2317, 2-(benzylamino)-3-fluoro-7,8-dimethoxy-10,11-dihydro-5H-dibenzo[a,d][7]annulen-5-one] | 69 |  | 107 |  | > 20 |  | 
10 | COc1ccc(-c2ccc3c(c2)C(=O)c2cc(OC)c(OC)cc2SC3)cc1 [HN2306, 2,3-dimethoxy-9-(4-methoxyphenyl)dibenzo[b,e]thiepin-11(6H)-one] | 257 | selectively inhibit mTORC2 | 64 | > 20 |  |  | 

Second part, led by results:

Row | remaining activity at 40 µM (mTORC1; 9 hours) [%] | selective inhibition of mTORC2 (mTORC2) | remaining activity at 40 µM (mTORC2) [%] | inhibition at 40 µM (mTORC2) [%] | inhibition at 40 µM (mTORC1) [%] | increase in S6K Thr389 phosphorylation (mTORC1; 40 μM, 9 hours) [%] | SMILES | activity at 40 µM (LC3-II) [%]
11 | 153 | selectively inhibit mTORC2 | 69 | > 20 |  |  | COc1ccc(CNc2cc3c(cc2F)C(=O)c2cc4c(cc2OC3)OCO4)cc1 [HN2326, 9-fluoro-8-((4-methoxybenzyl)amino)-[1,3]dioxolo[4′,5′:4,5]benzo[1,2-b]benzo[e]oxepin-11(6H)-one] | 404
12 | 81 | selectively inhibit mTORC2 | 54 | > 20 |  |  | CS(=O)(=O)Nc1cc2c(cc1F)C(=O)c1cc3c(cc1OC2)OCO3 [HN2301, N-(9-fluoro-11-oxo-6,11-dihydro-[1,3]dioxolo[4′,5′:4,5]benzo[1,2-b]benzo[e]oxepin-8-yl)methanesulfonamide] | 96
13 | 95 | selectively inhibit mTORC2 | 69 | > 20 |  |  | O=C1c2cc(F)c(N3CCC(Cc4ccccc4)CC3)cc2COc2cc3c(cc21)OCO3 [HN2222, 8-(4-benzylpiperidin-1-yl)-9-fluoro[2]benzoxepino[3,4-f]-1,3-benzodioxol-11(6H)-one] | 89
14 | 57 |  | 36 | > 20 | > 20 |  | COc1ccc(CNc2cc3c(cc2F)C(=O)c2cc4c(cc2OC3)OCO4)cc1OC [HN2329, 8-((3,4-dimethoxybenzyl)amino)-9-fluoro-[1,3]dioxolo[4′,5′:4,5]benzo[1,2-b]benzo[e]oxepin-11(6H)-one] | 386
15 | 191 | selectively inhibit mTORC2 | 54 | > 20 |  |  | CN(C)c1cc2c(cc1F)C(=O)c1cc3c(cc1OC2)OCO3 [HN2209, 8-(dimethylamino)-9-fluoro[2]benzoxepino[3,4-f]-1,3-benzodioxol-11(6H)-one] | 124
16 | 121 | selectively inhibit mTORC2 | 64 | > 20 |  | 21 | O=C1c2cc(-c3ccoc3)ccc2COc2cc3c(cc21)OCO3 [HN2216, 9-(3-furanyl)[2]benzoxepino[3,4-f]-1,3-benzodioxol-11(6H)-one] | 99
17 | 86 | selectively inhibit mTORC2 | 78 | > 20 |  |  | COc1ccc(CNc2cc3c(cc2F)C(=O)c2cc4c(cc2OC3)OCO4)c(OC)c1 [HN2328, 8-((2,4-dimethoxybenzyl)amino)-9-fluoro-[1,3]dioxolo[4′,5′:4,5]benzo[1,2-b]benzo[e]oxepin-11(6H)-one] | 340
18 | 77 |  | 118 |  | > 20 |  | O=C1c2cc(F)c(N3CCCCC3)cc2COc2cc3c(cc21)OCO3 [HN2211, 8-(piperidinyl)-9-fluoro[2]benzoxepino[3,4-f]-1,3-benzodioxol-11(6H)-one] | 122
19 | 99 | selectively inhibit mTORC2 | 67 | > 20 |  |  | O=C1c2cc(-c3ccc(Cl)cc3)ccc2COc2cc3c(cc21)OCO3 [HN2214, 9-(4-chlorophenyl)[2]benzoxepino[3,4-f]-1,3-benzodioxol-11(6H)-one] | 154

Reference: patent publication US20260265267A1, “NOVEL COMPOUNDS WITH MTORC2-INHIBITORY ACTIVITY AND USES THEREOF” (Aliad Biopharma, priority 2023, published 2026)
